Source: EPA's aquatic toxicity sets

Tests used:
[1] = test system: Daphnia magna; assay: 48 h LC50 (-log10 mol/L); higher = more toxic
[2] = test system: Tetrahymena pyriformis; assay: 48 h IGC50 (-log10 mol/L); higher = more toxic

Row | Compound | 48 h LC50 (-log10 mol/L) [1] | 48 h IGC50 (-log10 mol/L) [2]
1 | CNC(N)=S | 3.98 | 1.63
2 | Clc1ccc(Cl)cc1 | 4.14 | 3.53
3 | O=Cc1ccccc1 | 3.98 | 2.8
4 | O=[N+]([O-])c1ccc(O)cc1 | 4.02 | 4.42
5 | O=C(O)c1ccccc1O | 3.07 | 2.49
6 | c1ccc2c(c1)oc1ccccc12 | 5 | 4.42
7 | CCCCc1ccccc1 | 5.55 | 4.25
8 | Nc1cc(Cl)ccc1Cl | 4.74 | 3.58
9 | Cc1ccc(O)c(C)c1 | 4.76 | 3.14
10 | c1ccsc1 | 2.42 | 1.56
11 | CCC(=O)O | 3.17 | 2.49
12 | CCCCNC(N)=S | 3.85 | 2.81
13 | Cc1ccccc1N | 5.31 | 2.84
14 | CCCCN=C=S | 5.43 | 4.72
15 | CC(C)c1ccccc1 | 3.77 | 3.69
16 | CCCCC(CC)C(=O)O (stereo unspecified) | 3.08 | 3.08
17 | Nc1ccc(Cl)cc1Cl | 5.43 | 3.56
18 | Cc1c(Cl)cccc1[N+](=O)[O-] | 4.61 | 3.68
19 | Oc1ccc(-c2ccccc2)cc1 | 4.67 | 4.39
20 | NC(N)=S | 3.88 | 1.68
21 | c1ccncc1 | 1.81 | 1.68
22 | CCOC(C)=O | 2.09 | 1.7
23 | c1ccc2[nH]ccc2c1 | 5.07 | 3.21
24 | CCOP(=O)(OCC)OC(=CCl)c1ccc(Cl)cc1Cl | 6.56 | –

Row | Compound | 48 h LC50 (-log10 mol/L) [1] | 48 h IGC50 (-log10 mol/L) [2]
25 | CCOC(=O)CC | 2.83 | 2.06
26 | c1ccc2cnccc2c1 | 3.71 | –
27 | Cc1ccc([N+](=O)[O-])cc1C | 3.98 | 3.59
28 | Cc1ncc2n1-c1ccc(Cl)cc1C(c1ccccc1F)=NC2 | 6.21 | –
29 | Cc1cc(Cl)ccc1O | 5.69 | 3.7
30 | C[C@]12CC[C@H]3[C@@H](CCC4=CC(=O)CC[C@@]43C)[C@@H]1CC[C@@H]2O | 5.17 | –
31 | CC(Cc1ccc(C(C)(C)C)cc1)CN1C[C@@H](C)O[C@@H](C)C1 (stereo partly specified) | 5.1 | –
32 | O=S1(=O)c2ccccc2-c2ccccc21 | 4.57 | –
33 | Cc1nc2n(c(=O)c1CCN1CCC(c3noc4cc(F)ccc34)CC1)CCCC2 | 4.83 | –
34 | O=NN(c1ccccc1)c1ccccc1 | 4.4 | –
35 | Clc1ccc(-c2ccccc2)cc1 | 5.63 | –
36 | CN1CSC(=S)N(C)C1 | 5.47 | –
37 | CN(C)c1nc(=O)n(C2CCCCC2)c(=O)n1C | 3.22 | –
38 | FCC(F)(F)F | 2.02 | –
39 | CSc1nc(NC2CC2)nc(NC(C)(C)C)n1 | 4.49 | –
40 | Cc1ccc(Cl)cc1Cl | 5.42 | –
41 | O=C1CN(/N=C/c2ccc([N+](=O)[O-])o2)C(=O)N1 | 3.51 | –
42 | O=C(N=C=S)c1ccccc1 | 4.93 | 3.1
43 | O=c1ccc2ccccc2o1 | 4.03 | –
44 | CC(=O)Nc1ccc(O)cc1 | 4.22 | 2.18
45 | CCC(Cl)Cl | 3.63 | –
46 | CCOc1ccc2c(c1)C(C)=CC(C)(C)N2 | 5.04 | –
47 | S=C=Nc1ccc(N=C=S)cc1 | 6.4 | 6.35
